In ChEMBL document CHEMBL1152470, “Antimicrobial activities of tigecycline and other broad-spectrum antimicrobials tested against serine carbapenemase- and metallo-beta-lactamase-producing Enterobacteriaceae: report from the SENTRY Antimicrobial Surveillance Program” (2008):
In brackets after ≈: the same amount, converted by molar mass.

How the values were obtained:
Assay type in all cases: functional
[1] = test system: Enterobacter sp.; assay: Antimicrobial activity against carbapenemase producing Enterobacter sp. assessed as resistant isolates by CLSI breakpoint assay
[2] = test system: Enterobacter sp.; assay: Antimicrobial activity against carbapenemase producing Enterobacter sp. assessed as susceptible isolates by CLSI breakpoint assay
[3] = test system: Klebsiella sp.; assay: Antimicrobial activity against Klebsiella sp. assessed as resistant isolates by CLSI breakpoint assay
[4] = test system: Klebsiella sp.; assay: Antimicrobial activity against Klebsiella sp. assessed as susceptible isolates by CLSI breakpoint assay
[5] = test system: Enterobacteriaceae; assay: Antimicrobial activity against carbapenemase producing Enterobacteriaceae by CLSI broth microdilution method
[6] = test system: Enterobacteriaceae; assay: Antimicrobial activity against carbapenemase producing Enterobacteriaceae assessed as resistant isolates by CLSI breakpoint assay
[7] = test system: Enterobacter sp.; assay: Antimicrobial activity against carbapenemase producing Enterobacter sp. by CLSI broth microdilution method
[8] = test system: Enterobacteriaceae; assay: Antimicrobial activity against carbapenemase producing Enterobacteriaceae assessed as susceptible isolates by CLSI breakpoint assay
[9] = test system: Klebsiella sp.; assay: Antimicrobial activity against Klebsiella sp. by CLSI broth microdilution method
[10] = test system: Enterobacteriaceae; assay: Antimicrobial activity against Enterobacteriaceae
[11] = test system: Proteus mirabilis; assay: Antimicrobial activity against Proteus mirabilis
[12] = test system: Enterobacter cloacae; assay: Antimicrobial activity against NMC-A carbapenemase producing Enterobacter cloacae […]
[13] = test system: Serratia marcescens; assay: Antimicrobial activity against SME1 carbapenemase producing Serratia marcescens […]
[14] = test system: Klebsiella oxytoca; assay: Antimicrobial activity against KPC2 carbapenemase producing Klebsiella oxytoca […]
[15] = test system: Pluralibacter gergoviae; assay: Antimicrobial activity against KPC3 carbapenemase producing Enterobacter gergoviae […]
[16] = test system: Enterobacter cloacae; assay: Antimicrobial activity against KPC2/3 carbapenemase producing Enterobacter cloacae […]
[17] = test system: Enterobacter hormaechei; assay: Antimicrobial activity against KPC2 carbapenemase producing Enterobacter hormaechei […]
[18] = test system: Serratia marcescens; assay: Antimicrobial activity against KPC2/3 carbapenemase producing Serratia marcescens […]
[19] = test system: Escherichia coli; assay: Antimicrobial activity against KPC2/3 carbapenemase producing Escherichia coli […]
[20] = test system: Citrobacter freundii; assay: Antimicrobial activity against KPC2/3 carbapenemase producing Citrobacter freundii […]
[21] = test system: Klebsiella pneumoniae; assay: Antimicrobial activity against VIM1 carbapenemase producing Klebsiella pneumoniae […]
[22] = test system: Enterobacter cloacae; assay: Antimicrobial activity against VIM1 carbapenemase producing Enterobacter cloacae […]
[23] = test system: Citrobacter freundii; assay: Antimicrobial activity against KPC3 carbapenemase producing Citrobacter freundii […]
[24] = test system: Enterobacter cloacae; assay: Antimicrobial activity against IMP1 carbapenemase producing Enterobacter cloacae […]
[25] = test system: Klebsiella pneumoniae; assay: Antimicrobial activity against KPC2/3 carbapenemase producing Klebsiella pneumoniae […]
[26] = test system: Citrobacter freundii; assay: Antimicrobial activity against KPC2 carbapenemase producing Citrobacter freundii […]
[27] = test system: Enterobacter cloacae; assay: Antimicrobial activity against KPC2 carbapenemase producing Enterobacter cloacae […]
[28] = test system: Klebsiella oxytoca; assay: Antimicrobial activity against KPC3 carbapenemase producing Klebsiella oxytoca […]
[29] = test system: Klebsiella pneumoniae; assay: Antimicrobial activity against KPC2 carbapenemase producing Klebsiella pneumoniae […]
[30] = test system: Klebsiella oxytoca; assay: Antimicrobial activity against KPC2/3 carbapenemase producing Klebsiella oxytoca […]

In the case of `C[C@@H](O)[C@H]1C(=O)N2C(C(=O)O)=C(S[C@@H]3CN[C@H](C(=O)Nc4cccc(C(=O)O)c4)C3)[C@H](C)[C@H]12`, the Activity [1] is reported as 12.5%, the Activity [2] is reported as 8.3% and the Activity [3] is reported as 83.3%. The Activity [4] was 5%, the MIC50 [5] was 8 µg/mL (≈ 16.8 µM) and the MIC90 [5] was 32 µg/mL (≈ 67.3 µM). It also gave an Activity [6] of 73.1%, an MIC50 [7] of over 8 µg/mL and an MIC90 [7] of over 16 µg/mL. The Activity [8] was 7.7%, the MIC50 [9] was over 8 µg/mL and the MIC90 [9] was over 32 µg/mL.
With `NCC[C@H](O)C(=O)N[C@@H]1C[C@H](N)[C@@H](O[C@H]2O[C@H](CN)[C@@H](O)[C@H](O)[C@H]2O)[C@H](O)[C@H]1O[C@H]1O[C@H](CO)[C@@H](O)[C@H](N)[C@H]1O` [AMIKACIN] the Activity [1] was 4.8%, the Activity [2] was 95.2% and the Activity [3] was 13.3%. It also gave an Activity [4] of 53.3%, an MIC50 [5] of 8 µg/mL (≈ 13.7 µM) and an MIC90 [5] of 32 µg/mL (≈ 54.6 µM). For the same compound, the Activity [6] was 8.3%, the MIC50 [7] was 2 µg/mL (≈ 3.42 µM) and the MIC90 [7] was 16 µg/mL (≈ 27.3 µM). It also gave an Activity [8] of 73.3%, an MIC50 [9] of 16 µg/mL (≈ 27.3 µM) and an MIC90 [9] of over 32 µg/mL.
With `C[C@@H](O)[C@H]1C(=O)N2C(C(=O)O)=C(SCCNC=N)C[C@H]12` [IMIPENEM ANHYDROUS] the Activity [1] was 17.7%, the Activity [2] was 54.2% and the Activity [3] was 46.7%. The Activity [4] was 21.7%, the MIC50 [5] was 8 µg/mL (≈ 26.7 µM) and the MIC90 [5] was over 8 µg/mL. The MIC50 [7] was 4 µg/mL (≈ 13.4 µM), the MIC90 [7] was over 8 µg/mL and the Activity [8] was 37.5%. It also gave an MIC50 [9] of 8 µg/mL (≈ 26.7 µM) and an MIC90 [9] of 16 µg/mL (≈ 53.4 µM).
With `C[C@@H](O)[C@H]1C(=O)N2C(C(=O)O)=C(S[C@@H]3CN[C@H](C(=O)N(C)C)C3)[C@H](C)[C@H]12` [MEROPENEM] the MIC [10] was at least 2 µg/mL, the Activity [1] was 41.7% and the Activity [2] was 33.3%. The Activity [3] was 61.7%, the Activity [4] was 20% and the MIC50 [5] was 8 µg/mL (≈ 20.9 µM). The MIC90 [5] was over 8 µg/mL, the Activity [6] was 50% and the MIC [11] was at least 16 µg/mL. It also gave an MIC50 [7] of 8 µg/mL (≈ 20.9 µM), an MIC90 [7] of over 8 µg/mL and an Activity [8] of 32.7%. The MIC50 [9] was over 8 µg/mL and the MIC90 [9] was over 8 µg/mL.
Work on `CN(C)[C@@H]1C(O)=C(C(N)=O)C(=O)[C@@]2(O)C(O)=C3C(=O)c4c(O)cccc4[C@@](C)(O)[C@H]3C[C@@H]12` [TETRACYCLINE] yielded an Activity [1] of 20.8%, an Activity [2] of 70.8% and an Activity [3] of 13.3%. It also gave an Activity [4] of 66.7%, an MIC50 [5] of 4 µg/mL (≈ 9 µM) and an MIC90 [5] of over 8 µg/mL. The Activity [6] was 19.2%, the MIC50 [7] was 4 µg/mL (≈ 9 µM) and the MIC90 [7] was over 8 µg/mL. The Activity [8] was 35.6%, the MIC50 [9] was 4 µg/mL (≈ 9 µM) and the MIC90 [9] was over 8 µg/mL.
`CN(C)c1cc(NC(=O)CNC(C)(C)C)c(O)c2c1C[C@H]1C[C@H]3[C@H](N(C)C)C(O)=C(C(N)=O)C(=O)[C@@]3(O)C(O)=C1C2=O` [TIGECYCLINE] gave an MIC [12] of 0.12 µg/mL (≈ 0.205 µM), an MIC [13] of 0.5 µg/mL (≈ 0.854 µM) and an MIC [14] of 0.12 µg/mL (≈ 0.205 µM). The MIC [15] was 0.25 µg/mL (≈ 0.427 µM), the MIC [16] was 0.12 µg/mL (≈ 0.205 µM) and the MIC [17] was 2 µg/mL (≈ 3.41 µM). For the same compound, the MIC [18] was 0.5 µg/mL (≈ 0.854 µM), the Activity [1] was 0% and the MIC [19] was 0.12 µg/mL (≈ 0.205 µM). For the same compound, the MIC [20] was 0.25 µg/mL (≈ 0.427 µM), the MIC [21] was 0.12 µg/mL (≈ 0.205 µM) and the MIC [22] was 0.25 µg/mL (≈ 0.427 µM). It also gave an MIC [23] of 0.12 µg/mL (≈ 0.205 µM), an MIC [24] of 0.25 µg/mL (≈ 0.427 µM) and an MIC [25] of 0.25 µg/mL (≈ 0.427 µM). It also gave an MIC [26] of 1 µg/mL (≈ 1.71 µM), an Activity [2] of 100% and an Activity [3] of 0%. It also gave an MIC [27] of 0.5 µg/mL (≈ 0.854 µM), an Activity [4] of 100% and an MIC [28] of 0.5 µg/mL (≈ 0.854 µM). It also gave an MIC50 [5] of 0.5 µg/mL (≈ 0.854 µM), an MIC90 [5] of 1 µg/mL (≈ 1.71 µM) and an Activity [6] of 0%. The MIC [29] was 1 µg/mL (≈ 1.71 µM), the MIC50 [7] was 0.25 µg/mL (≈ 0.427 µM) and the MIC90 [7] was 0.5 µg/mL (≈ 0.854 µM). The MIC [30] was 0.25 µg/mL (≈ 0.427 µM), the Activity [8] was 100% and the MIC50 [9] was 1 µg/mL (≈ 1.71 µM). For the same compound, the MIC90 [9] was 2 µg/mL (≈ 3.41 µM).
In the case of GENTAMICIN, the Activity [1] is reported as 38.1%, the Activity [2] is reported as 42.9% and the Activity [3] is reported as 31.2%. It also gave an Activity [4] of 58.3%, an MIC50 [5] of 4 µg/mL and an MIC90 [5] of over 8 µg/mL. The MIC50 [7] was 8 µg/mL, the MIC90 [7] was over 8 µg/mL and the Activity [8] was 73.3%. It also gave an MIC50 [9] of under 2 µg/mL and an MIC90 [9] of over 8 µg/mL.
Compound POLYMYXIN B has an Activity [1] of 4.8%, an Activity [2] of 95.2% and an Activity [3] of 6.7%. The Activity [4] was 93.3%, the MIC50 [5] was under 1 µg/mL and the MIC90 [5] was 4 µg/mL. It also gave an Activity [6] of 11.9%, an MIC50 [7] of under 1 µg/mL and an MIC90 [7] of under 1 µg/mL. For the same compound, the Activity [8] was 88.1%, the MIC50 [9] was under 1 µg/mL and the MIC90 [9] was under 1 µg/mL.
